From PubChem BioAssay (NCI)
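The compound was tested at five concentrations on cells cultured in 96-well plates, with a 48-hour exposure period. The concentration for 50% growth inhibition is given as GI50. Definition used: TGI = concentration required for complete inhibition of growth.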

The molecules below were run on NCI/ADR-RES ovarian (assay: growth of human tumour cells (NCI), 48 h).

Compared with `Cc1cc(Cl)cc(OCCn2cc(F)cn2)c1-c1nc(N)nc2c1CN(C(=O)NCC(C)(F)F)C2`, `COc1cccc(F)c1C(=O)c1cnc(NC2CCN(S(C)(=O)=O)CC2)nc1N` is 7.7-fold lower in GI50: 53.1 µM for the first, 6.9 µM for the second.

First: COc1ccc(/C=C\[N+](=O)[O-])cc1OC
Second: COc1ccccc1/C=N\N/C(N)=N\N=C\c1ccccc1OC
The GI50 of the first is 18-fold higher: 7.08 µM for the first, 0.39 µM for the second.

First: CCN(CC)CCC(CNc1ccnc2cc(Cl)ccc12)c1ccc(Cl)cc1 (stereo not drawn)
Second: CC1(C)N=C(N)N=C(N)N1c1ccc(CCCCc2ccc(Cl)cc2S(=O)(=O)F)c(Cl)c1
The GI50 of the first is 2.6-fold lower: 2.06 µM for the first, 5.28 µM for the second.

First: COC(=O)c1ccc2c(c1)nc(NC(=O)c1ccccc1)n2CCCc1ccccc1
Second: CO/N=C(/C)c1cccc(Nc2cc(-n3nnc4ccccc43)nc3ccccc23)c1
The GI50 of the first is 15-fold lower: 4.1 µM for the first, 61.9 µM for the second.

First: NC(=O)/C=C/C(=O)c1c(Cl)cccc1Cl
Second: COC(=O)COc1ccccc1/C=C1\N=C(c2ccccc2)N(c2cc(C(F)(F)F)ccc2Cl)C1=O
The GI50 of the first is 26-fold lower: 1.77 µM for the first, 45.8 µM for the second.

`O=C(Nc1ccc(Nc2ccncc2)cc1)c1ccc([N+](=O)[O-])cc1` and `S=C(Nc1ccc(Cl)cc1)Nc1ccc(-c2nc3ccccc3s2)cc1` are within 1.5-fold of each other in GI50: 14.2 µM for the first, 17.5 µM for the second.

First: COc1cccc(CC(C)=C(c2ccc(OCCN(C)C)cc2)c2ccc(OCCN(C)C)cc2)c1
Second: CC(=O)Nc1ccc(S(=O)(=O)N2C(=O)CCC2C(=O)Nc2ccc(Br)cc2)cc1 (stereo not drawn)
The GI50 of the first is 1.5-fold higher: 3.76 µM for the first, 2.47 µM for the second.

First: COC(=O)C[C@](O)(CCCC(C)(C)O)C(=O)O[C@@H]1C(OC)=C[C@]23CCCN2CCc2cc4c(cc2[C@H]13)OCO4
Second: COc1cc(C(=O)N2CCN(C=O)C2=S)cc(OC)c1OC
The GI50 of the first is 39-fold lower: 0.934 µM for the first, 36.1 µM for the second.

`C[N+](C)(C)CC1CCCc2ccccc2C1=O` (stereo not drawn) showed a GI50 of 22.4 µM.

`Cc1cc(Cl)cc(OCCn2cc(F)cn2)c1-c1nc(N)nc2c1CN(C(=O)NCC(C)(F)F)C2` and `COc1cccc(F)c1C(=O)c1cnc(NC2CCN(S(C)(=O)=O)CC2)nc1N` cannot be ordered by TGI: over 100 µM for the first, over 25 µM for the second.

Going from `COc1ccc(/C=C\[N+](=O)[O-])cc1OC` to `COc1cc(C(=O)N2CCN(C=O)C2=S)cc(OC)c1OC`, the TGI rises from 36.8 µM to over 100 µM.

First: CCN(CC)CCC(CNc1ccnc2cc(Cl)ccc12)c1ccc(Cl)cc1 (stereo not drawn)
Second: CC1(C)N=C(N)N=C(N)N1c1ccc(CCCCc2ccc(Cl)cc2S(=O)(=O)F)c(Cl)c1
The TGI of the first is lower: 8.65 µM for the first, over 100 µM for the second.

`COC(=O)c1ccc2c(c1)nc(NC(=O)c1ccccc1)n2CCCc1ccccc1` and `CO/N=C(/C)c1cccc(Nc2cc(-n3nnc4ccccc43)nc3ccccc23)c1` cannot be ordered by TGI: over 100 µM for the first, over 100 µM for the second.

Going from `Cc1ccc(S(=O)(=O)Nc2ccccc2C=O)cc1` to `CC(=O)Nc1ccc(S(=O)(=O)N2C(=O)CCC2C(=O)Nc2ccc(Br)cc2)cc1` (stereo not drawn), the TGI rises from 59 µM to over 100 µM.

`O=C(Nc1ccc2ncccc2c1)Nc1ccc2ncccc2c1` and `O=C(Nc1ccc(Nc2ccncc2)cc1)c1ccc([N+](=O)[O-])cc1` cannot be ordered by TGI: over 100 µM for the first, over 62.5 µM for the second.

`CC1(C)S[C@@H]2[C@H](NC(=O)C3(N)CCCCC3)C(=O)N2[C@H]1C(=O)O` and `C=C1C(=O)OC2CC(C)C(C(CC(C)=O)OC(C)=O)=CCC12` (stereo not drawn) cannot be ordered by TGI: over 100 µM for the first, over 45 µM for the second.

First: NC(=O)/C=C/C(=O)c1c(Cl)cccc1Cl
Second: COC(=O)COc1ccccc1/C=C1\N=C(c2ccccc2)N(c2cc(C(F)(F)F)ccc2Cl)C1=O
The TGI of the first is lower: 3.44 µM for the first, over 100 µM for the second.

Going from `C(=NCCN1CCOCC1)=NC1CCCCC1` to `C[N+](C)(C)CC1CCCc2ccccc2C1=O` (stereo not drawn), the TGI falls from over 100 µM to 54 µM.

Compared with `COc1cccc(CC(C)=C(c2ccc(OCCN(C)C)cc2)c2ccc(OCCN(C)C)cc2)c1`, `S=C(Nc1ccc(Cl)cc1)Nc1ccc(-c2nc3ccccc3s2)cc1` is 4.4-fold higher in TGI: 8.32 µM for the first, 36.6 µM for the second.

With `COC(=O)C[C@](O)(CCCC(C)(C)O)C(=O)O[C@@H]1C(OC)=C[C@]23CCCN2CCc2cc4c(cc2[C@H]13)OCO4` the TGI was 14.6 µM.

Each molecule was assayed on SNB-75 CNS (assay: growth of human tumour cells (NCI), 48 h).

First: CN(C)CCNC(=O)c1cccc2ccc(-c3ccc(O)cc3)nc12
Second: O=C(Nc1ccc2ncccc2c1)Nc1ccc2ncccc2c1
The TGI of the first is lower: 11.7 µM for the first, over 100 µM for the second.

`CSc1nc(=O)n(CCC#N)nc1SC` and `Cc1cc(Cl)cc(OCCn2cc(F)cn2)c1-c1nc(N)nc2c1CN(C(=O)NCC(C)(F)F)C2` cannot be ordered by TGI: over 100 µM for the first, over 100 µM for the second.

`COc1cc(Nc2ncccc2C(=O)NCc2cn(Cc3cccc(Oc4ccccc4)c3)nn2)cc(OC)c1` and `COC(=O)c1ccc2c(c1)nc(NC(=O)c1ccccc1)n2CCCc1ccccc1` cannot be ordered by TGI: over 100 µM for the first, over 100 µM for the second.

`COc1cc(-c2oc(=O)ccc2C#Cc2ccccn2)cc(OC)c1OC` and `Cn1cc(C2=C(c3ccc(N)cc3)C(=O)NC2=O)c2ccccc21` cannot be ordered by TGI: over 29.8 µM for the first, over 15.2 µM for the second.

Compared with `COc1cccc(C2CC(C)(O)Oc3cc4c(cc32)OCO4)c1O` (stereo not drawn), `COc1cccc(F)c1C(=O)c1cnc(NC2CCN(S(C)(=O)=O)CC2)nc1N` is 6.3-fold lower in TGI: 60.2 µM for the first, 9.57 µM for the second.

Compared with `COc1ccc(/C=C\[N+](=O)[O-])cc1OC`, `Cc1ccc(S(=O)(=O)Nc2ccccc2C=O)cc1` is 1.9-fold higher in TGI: 29.8 µM for the first, 57.7 µM for the second.

With `CCN(CC)CCC(CNc1ccnc2cc(Cl)ccc12)c1ccc(Cl)cc1` (stereo not drawn) the TGI was 2.64 µM.

First: COc1cc(Nc2ncccc2C(=O)NCc2cn(Cc3cccc(Oc4ccccc4)c3)nn2)cc(OC)c1
Second: COC(=O)c1ccc2c(c1)nc(NC(=O)c1ccccc1)n2CCCc1ccccc1
The GI50 of the first is 4.7-fold lower: 3.98 µM for the first, 18.6 µM for the second.

First: COc1cc(-c2oc(=O)ccc2C#Cc2ccccn2)cc(OC)c1OC
Second: Cn1cc(C2=C(c3ccc(N)cc3)C(=O)NC2=O)c2ccccc21
The GI50 of the first is 3.4-fold higher: 1.93 µM for the first, 0.571 µM for the second.

Compared with `COc1ccc(/C=C\[N+](=O)[O-])cc1OC`, `COc1cccc(F)c1C(=O)c1cnc(NC2CCN(S(C)(=O)=O)CC2)nc1N` is 2.6-fold lower in GI50: 10.6 µM for the first, 4.13 µM for the second.

In the case of `CCN(CC)CCC(CNc1ccnc2cc(Cl)ccc12)c1ccc(Cl)cc1` (stereo not drawn), the GI50 is reported as 1.3 µM.
